Test results taken from US20240116985A1, “STAPLED PEPTIDES AND METHODS THEREOF” (priority 2020, published 2024).

What was measured:
[1] = molecular target: T1, full-length beta-Catenin (Uniprot ID P35222) (Homo sapiens, UniProt P35222); test: Fluorescence polarization IC50 (beta-catenin / 5FAM-TCF4 10-53 competition); assay type: binding; conditions: fluorescence polarization; read-out: beta-Catenin FP IC50
T1 construct: 10 nM full-length beta-Catenin (Uniprot ID P35222)
T1 sequence (P35222 1-781): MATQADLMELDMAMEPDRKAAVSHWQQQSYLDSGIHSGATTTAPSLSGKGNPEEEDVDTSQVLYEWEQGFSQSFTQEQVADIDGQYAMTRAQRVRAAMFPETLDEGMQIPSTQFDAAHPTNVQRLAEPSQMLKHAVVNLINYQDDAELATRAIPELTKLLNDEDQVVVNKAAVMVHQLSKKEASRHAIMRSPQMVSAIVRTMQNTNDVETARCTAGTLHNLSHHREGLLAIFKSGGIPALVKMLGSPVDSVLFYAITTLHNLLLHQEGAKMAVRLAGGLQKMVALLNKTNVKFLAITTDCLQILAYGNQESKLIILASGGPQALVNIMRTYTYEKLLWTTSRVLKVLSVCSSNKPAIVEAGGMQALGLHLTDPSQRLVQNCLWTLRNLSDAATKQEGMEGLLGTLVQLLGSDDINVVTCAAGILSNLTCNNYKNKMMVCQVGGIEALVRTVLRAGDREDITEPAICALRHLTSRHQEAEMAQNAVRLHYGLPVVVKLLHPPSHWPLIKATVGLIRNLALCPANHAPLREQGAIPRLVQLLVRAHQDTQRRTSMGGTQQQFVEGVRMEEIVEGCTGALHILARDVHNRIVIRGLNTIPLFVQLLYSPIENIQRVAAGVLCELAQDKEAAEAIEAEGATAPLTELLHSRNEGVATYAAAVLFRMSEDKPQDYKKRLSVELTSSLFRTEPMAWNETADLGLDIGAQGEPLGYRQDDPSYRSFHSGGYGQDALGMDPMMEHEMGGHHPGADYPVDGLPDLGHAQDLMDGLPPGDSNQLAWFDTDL

[2] = molecular target: T2, beta-catenin/TCF4 engagement (Homo sapiens, UniProt P35222); test: Nano-BRET target engagement assay (B-cat-Halo & TCF4-Luc in HEK293 cells); assay type: cell-based; conditions: absolute IC50; read-out: NanoBRET Abs IC50
T2 construct: expressed in transfected cells; host or cells: HEK293
T2 sequence (P35222 1-781): T1 sequence (P35222 1-781)

CC(=O)N1CCC[C@]12CC=CCCCC1(CCCC=CCCCOC(=O)N3CC[C@@](C(=O)N[C@@H](Cc4ccsc4)C(=O)N[C@@H](Cc4csc5ccccc45)C(=O)N[C@@H](CC(N)=O)C(=O)N[C@@H](C)C(=O)N[C@@H](CC(C)C)C(=O)N[C@@H](C)C(=O)N[C@@H](CC(C)C)C(=O)N[C@@H](C)C(=O)N[C@@H](CC(C)C)C(=O)N[C@@H](C)C(N)=O)(C3)NC(=O)[C@H](CC(C)C)NC(=O)[C@H](Cc3ccccc3)NC(=O)[C@H](C)NC(=O)[C@H](C)NC(=O)[C@H](Cc3cccc(C(=O)O)c3)NC(=O)[C@H](CC(=O)O)NC1=O)NC(=O)[C@H](CC(C)(C)C)NC(=O)[C@H](CC(=O)O)NC2=O (some centres unmarked) [I-2284]
IC50 [1]: 2.68 µM | IC50 [2]: 12.9 µM

CC(=O)N1CCC[C@]12CC=CCCCC1(CCCC=CCCCOC(=O)N3CC[C@@](C(=O)N[C@@H](Cc4ccsc4)C(=O)N[C@@H](Cc4ccc(F)c(Br)c4)C(=O)N[C@@H](CCC(N)=O)C(N)=O)(C3)NC(=O)[C@H](CC(C)C)NC(=O)[C@H](Cc3ccccc3)NC(=O)[C@H](C)NC(=O)[C@H](C)NC(=O)[C@H](Cc3cccc(C(=O)O)c3)NC(=O)[C@H](CC(=O)O)NC1=O)NC(=O)[C@H](CC(C)(C)C)NC(=O)[C@H](CC(=O)O)NC2=O (stereo partly drawn) [I-2287, Ac-PL3-Asp-Npg-B5-Asp-3COOHF-Ala-Ala-Phe-Leu-PyrS2-3Thi-3Br4FF-Gln-NH2]
IC50 [1]: 0.007 µM | IC50 [2]: 7.1 µM

CC(=O)N1CCC[C@]12CC=CCCCC1(CCCC=CCCCOC(=O)N3CC[C@@](C(=O)N[C@@H](Cc4ccsc4)C(=O)N[C@@H](Cc4ccc(F)c(Br)c4)C(=O)N[C@@H](C)C(N)=O)(C3)NC(=O)[C@H](C(C)C)NC(=O)[C@H](Cc3ccccc3)NC(=O)[C@H](C)NC(=O)[C@H](CCC(N)=O)NC(=O)[C@H](Cc3cccc(C(=O)O)c3)NC(=O)[C@H](CC(=O)O)NC1=O)NC(=O)[C@H](CC(C)(C)C)NC(=O)[C@H](CC(=O)O)NC2=O (stereo partly drawn) [I-2288, Ac-PL3-Asp-Npg-B5-Asp-3COOHF-Gln-Ala-Phe-Val-PyrS2-3Thi-3Br4FF-Ala-NH2]
IC50 [1]: 0.005 µM | IC50 [2]: 6.7 µM

CC(=O)N1CCC[C@]12CC=CCCCC1(CCCC=CCCCOC(=O)N3CC[C@@](C(=O)N[C@@H](Cc4ccccc4C(F)(F)F)C(=O)N[C@@H](Cc4ccc(F)c(Br)c4)C(=O)N[C@@H](CO)C(N)=O)(C3)NC(=O)[C@H](CC(C)C)NC(=O)[C@H](Cc3ccccc3)NC(=O)[C@H](C)NC(=O)[C@H](C)NC(=O)[C@H](Cc3cccc(C(=O)O)c3)NC(=O)[C@H](CC(=O)O)NC1=O)NC(=O)[C@H](CC(C)(C)C)NC(=O)[C@H](CC(=O)O)NC2=O (stereo partly drawn) [I-2289, Ac-PL3-Asp-Npg-B5-Asp-3COOHF-Ala-Ala-Phe-Leu-PyrS2-2F3MeF-3Br4FF-Ser-NH2]
IC50 [1]: 0.008 µM | IC50 [2]: 9 µM

CC(=O)N1CCC[C@]12CC=CCCCC1(CCCC=CCCCOC(=O)N3CC[C@@](C(=O)N[C@@H](Cc4ccccc4C(F)(F)F)C(=O)N[C@@H](Cc4ccc(F)c(Br)c4)C(=O)N[C@@H](C)C(N)=O)(C3)NC(=O)[C@H](CC(C)C)NC(=O)[C@H](Cc3ccccc3)NC(=O)[C@H](C)NC(=O)[C@H](CCC(N)=O)NC(=O)[C@H](Cc3cccc(C(=O)O)c3)NC(=O)[C@H](CC(=O)O)NC1=O)NC(=O)[C@H](CC(C)(C)C)NC(=O)[C@H](CC(=O)O)NC2=O (stereo partly drawn) [I-2290, Ac-PL3-Asp-Npg-B5-Asp-3COOHF-Gln-Ala-Phe-Leu-PyrS2-2F3MeF-3Br4FF-Ala-NH2]
IC50 [1]: 0.014 µM | IC50 [2]: 7.9 µM

CC(=O)N1CCC[C@]12CC=CCCCC1(CCCC=CCCCOC(=O)N3CC[C@@](C(=O)N[C@@H](Cc4ccsc4)C(=O)N[C@@H](Cc4ccc(C)c(C)c4)C(=O)N[C@@H](CCC(N)=O)C(N)=O)(C3)NC(=O)[C@H](CC(C)C)NC(=O)[C@H](Cc3ccccc3)NC(=O)[C@H](C)NC(=O)[C@H](C)NC(=O)[C@H](Cc3cccc(C(=O)O)c3)NC(=O)[C@H](CC(=O)O)NC1=O)NC(=O)[C@H](CC(C)(C)C)NC(=O)[C@H](CC(=O)O)NC2=O (stereo partly drawn) [I-2291, Ac-PL3-Asp-Npg-B5-Asp-3COOHF-Ala-Ala-Phe-Leu-PyrS2-3Thi-34MeF-Gln-NH2]
IC50 [1]: 0.005 µM | IC50 [2]: 4.9 µM

CC(=O)N1CCC[C@]12CC=CCCCC1(CCCC=CCCCOC(=O)N3CC[C@@](C(=O)N[C@@H](Cc4ccsc4)C(=O)N[C@@H](Cc4ccc(C)c(C)c4)C(=O)N[C@@H](C)C(N)=O)(C3)NC(=O)[C@H](C(C)C)NC(=O)[C@H](Cc3ccccc3)NC(=O)[C@H](C)NC(=O)[C@H](CCC(N)=O)NC(=O)[C@H](Cc3cccc(C(=O)O)c3)NC(=O)[C@H](CC(=O)O)NC1=O)NC(=O)[C@H](CC(C)(C)C)NC(=O)[C@H](CC(=O)O)NC2=O (stereo partly drawn) [I-2292, Ac-PL3-Asp-Npg-B5-Asp-3COOHF-Gln-Ala-Phe-Val-PyrS2-3Thi-34MeF-Ala-NH2]
IC50 [1]: 0.009 µM | IC50 [2]: 2.7 µM

CC(=O)N1CCC[C@]12CC=CCCCC1(CCCC=CCCCOC(=O)N3CC[C@@](C(=O)N[C@@H](Cc4ccccc4C(F)(F)F)C(=O)N[C@@H](Cc4ccc(C)c(C)c4)C(=O)N[C@@H](CO)C(N)=O)(C3)NC(=O)[C@H](CC(C)C)NC(=O)[C@H](Cc3ccccc3)NC(=O)[C@H](C)NC(=O)[C@H](C)NC(=O)[C@H](Cc3cccc(C(=O)O)c3)NC(=O)[C@H](CC(=O)O)NC1=O)NC(=O)[C@H](CC(C)(C)C)NC(=O)[C@H](CC(=O)O)NC2=O (stereo partly drawn) [I-2293, Ac-PL3-Asp-Npg-B5-Asp-3COOHF-Ala-Ala-Phe-Leu-PyrS2-2F3MeF-34MeF-Ser-NH2]
IC50 [1]: 0.015 µM | IC50 [2]: 5.7 µM

CC(=O)N1CCC[C@]12CC=CCCCC1(CCCC=CCCCOC(=O)N3CC[C@@](C(=O)N[C@@H](Cc4ccccc4C(F)(F)F)C(=O)N[C@@H](Cc4ccc(C)c(C)c4)C(=O)N[C@@H](C)C(N)=O)(C3)NC(=O)[C@H](CC(C)C)NC(=O)[C@H](Cc3ccccc3)NC(=O)[C@H](C)NC(=O)[C@H](CCC(N)=O)NC(=O)[C@H](Cc3cccc(C(=O)O)c3)NC(=O)[C@H](CC(=O)O)NC1=O)NC(=O)[C@H](CC(C)(C)C)NC(=O)[C@H](CC(=O)O)NC2=O (stereo partly drawn) [I-2294, Ac-PL3-Asp-Npg-B5-Asp-3COOHF-Gln-Ala-Phe-Leu-PyrS2-2F3MeF-34MeF-Ala-NH2]
IC50 [1]: 0.016 µM | IC50 [2]: 4.6 µM

CC(=O)N1CCC[C@]12CC=CCCCC1(CCCC=CCCCOC(=O)N3CC[C@@](C(=O)N[C@@H](Cc4ccsc4)C(=O)N[C@@H](Cc4ccc5c(c4)CCC5)C(=O)N[C@@H](CCC(N)=O)C(N)=O)(C3)NC(=O)[C@H](CC(C)C)NC(=O)[C@H](Cc3ccccc3)NC(=O)[C@H](C)NC(=O)[C@H](C)NC(=O)[C@H](Cc3cccc(C(=O)O)c3)NC(=O)[C@H](CC(=O)O)NC1=O)NC(=O)[C@H](CC(C)(C)C)NC(=O)[C@H](CC(=O)O)NC2=O (stereo partly drawn) [I-2295, Ac-PL3-Asp-Npg-B5-Asp-3COOHF-Ala-Ala-Phe-Leu-PyrS2-3Thi-5IndA-Gln-NH2]
IC50 [1]: 0.005 µM | IC50 [2]: 3.3 µM

CC(=O)N1CCC[C@]12CC=CCCCC1(CCCC=CCCCOC(=O)N3CC[C@@](C(=O)N[C@@H](Cc4ccsc4)C(=O)N[C@@H](Cc4ccc5c(c4)CCC5)C(=O)N[C@@H](C)C(N)=O)(C3)NC(=O)[C@H](C(C)C)NC(=O)[C@H](Cc3ccccc3)NC(=O)[C@H](C)NC(=O)[C@H](CCC(N)=O)NC(=O)[C@H](Cc3cccc(C(=O)O)c3)NC(=O)[C@H](CC(=O)O)NC1=O)NC(=O)[C@H](CC(C)(C)C)NC(=O)[C@H](CC(=O)O)NC2=O (stereo partly drawn) [I-2296, Ac-PL3-Asp-Npg-B5-Asp-3COOHF-Gln-Ala-Phe-Val-PyrS2-3Thi-5IndA-Ala-NH2]
IC50 [1]: 0.006 µM | IC50 [2]: 5.1 µM

CC(=O)N1CCC[C@]12CC=CCCCC1(CCCC=CCCCOC(=O)N3CC[C@@](C(=O)N[C@@H](Cc4ccccc4C(F)(F)F)C(=O)N[C@@H](Cc4ccc5c(c4)CCC5)C(=O)N[C@@H](CO)C(N)=O)(C3)NC(=O)[C@H](CC(C)C)NC(=O)[C@H](Cc3ccccc3)NC(=O)[C@H](C)NC(=O)[C@H](C)NC(=O)[C@H](Cc3cccc(C(=O)O)c3)NC(=O)[C@H](CC(=O)O)NC1=O)NC(=O)[C@H](CC(C)(C)C)NC(=O)[C@H](CC(=O)O)NC2=O (stereo partly drawn) [I-2297, Ac-PL3-Asp-Npg-B5-Asp-3COOHF-Ala-Ala-Phe-Leu-PyrS2-2F3MeF-5IndA-Ser-NH2]
IC50 [1]: 0.068 µM | IC50 [2]: 5.5 µM

CC(=O)N1CCC[C@]12CC=CCCCC1(CCCC=CCCCOC(=O)N3CC[C@@](C(=O)N[C@@H](Cc4ccccc4C(F)(F)F)C(=O)N[C@@H](Cc4ccc5c(c4)CCC5)C(=O)N[C@@H](C)C(N)=O)(C3)NC(=O)[C@H](CC(C)C)NC(=O)[C@H](Cc3ccccc3)NC(=O)[C@H](C)NC(=O)[C@H](CCC(N)=O)NC(=O)[C@H](Cc3cccc(C(=O)O)c3)NC(=O)[C@H](CC(=O)O)NC1=O)NC(=O)[C@H](CC(C)(C)C)NC(=O)[C@H](CC(=O)O)NC2=O (stereo partly drawn) [I-2298, Ac-PL3-Asp-Npg-B5-Asp-3COOHF-Gln-Ala-Phe-Leu-PyrS2-2F3MeF-5IndA-Ala-NH2]
IC50 [1]: 0.008 µM | IC50 [2]: 4.6 µM
